Values after ≈ are worked out from the molar mass of the structure shown. Values joined by “and” are separate entries in the source; they are usually repeats but may differ in a detail not shown here. Identical values can stand only once. Like-named read-outs stand apart in the source and are kept apart here. Where no end group is shown, it is not given here.
Experiments:
[1] = system: panel of microorganisms (target strains); experiment: MIC determination against the panel of microorganisms (target strains); assay type: cell-based; conditions: comparison with mersacidin or with parent single mutants
Protocol: Partially purified fermentation samples from clones expressing highly produced variants were assayed for antimicrobial activity against M. luteus. Samples were fractionated to eliminate interfering bioactive compounds produced by the host strain and were bioassayed (see Supplemental Data available online). Selected mersacidin variants with antibacterial activity against M. luteus were produced at larger scale for quantitative studies (2 l). The mersacidin variants were purified and assayed against a panel of microorganisms to determine the MIC values.
(§1) Antibacterial activity of fermentation samples or purified samples was determined by Mueller-Hinton Agar diffusion bioassays using M. luteus ATCC 4698 as the indicator strain. Susceptibility testing (minimum inhibitory concentration [MIC]) for all aerobic organisms, with the exception of S. pneumoniae, was performed following the recommendations of CLSI. Susceptibility testing of S. pneumoniae was performed by two-fold serial dilutions in brain-heart-infusion broth supplemented with 50 μg/ml Ca^2+. Vancomycin was used as a reference antibiotic, and plates were incubated aerobically, with shaking, for 18–20 hr at 37°C with the MIC defined as the lowest concentration of drug that prevented visible growth.

S. aureus R33 MRSA = assay type: cell-based, Staphylococcus aureus
Protocol: as §1

S. aureus SH1000 = assay type: cell-based, Staphylococcus aureus
Protocol: as §1

S. pneumoniae BAA-255 = assay type: cell-based, Streptococcus pneumoniae
Protocol: as §1

M. luteus ATCC4698 = assay type: cell-based, Micrococcus luteus
Protocol: as §1

E. faecalis ATCC29212 = assay type: cell-based
Protocol: as §1

E. faecium 7131121 VRE = assay type: cell-based
Protocol: as §1

E. faecium ATCC19579 = assay type: cell-based
Protocol: as §1

S. epidermidis NCTC11047 = assay type: cell-based
Protocol: as §1

MRSA = conditions: ref Kruszewska et al., 2004; cited from earlier work
Text: (§2) Mersacidin has antibacterial activity against Gram-positive pathogens; like vancomycin, it binds to the peptidoglycan precursor lipid II ([Brotz et al., 1995; Brotz et al., 1997]).

[2] = system: methicillin-resistant Staphylococcus aureus (MRSA); conditions: administered subcutaneously; at concentrations comparable to vancomycin; ref Chatterjee et al., 1992b; cited from earlier work
Text: as §2

[3] = CLSI recommendations, incubated aerobically with shaking 18–20 hr at 37°C, MIC = lowest concentration preventing visible growth, purified variants

Row | Compound | antibacterial activity, in words, compared with parent [1] | MIC S. aureus R33 MRSA (S. aureus R33 MRSA; R33) | MIC S. aureus SH1000 (S. aureus SH1000; SH1000) | MIC S. pneumoniae BAA-255 (S. pneumoniae BAA-255; BAA-255) [mg/L] | MIC M. luteus ATCC4698 (M. luteus ATCC4698; ATCC4698) [mg/L] | MIC E. faecalis ATCC29212 (E. faecalis ATCC29212; ATCC29212) [mg/L] | MIC E. faecium 7131121 VRE (E. faecium 7131121 VRE; 7131121 VRE) [mg/L] | MIC E. faecium ATCC19579 (E. faecium ATCC19579; ATCC19579) [mg/L] | MIC S. epidermidis NCTC11047 (S. epidermidis NCTC11047; NCTC11047) [mg/L] | also measured
1 | F3W-L14I (CTWTLPGGGGVCTITSECIC; also: mersacidin methyllanthionine thioether bridges, not placed, C-terminal decarboxylated Cys (2-thioethenamine); UniProt P43683 49-68, looked up, variant F3W L14I) | comparable to those of the parent mutants |  |  |  |  |  |  |  |  | 
2 | V11I-L14I (CTFTLPGGGGICTITSECIC; also: mersacidin methyllanthionine thioether bridges, not placed, C-terminal decarboxylated Cys (2-thioethenamine); UniProt P43683 49-68, looked up, variant V11I L14I) | comparable to those of the parent mutants |  |  |  |  |  |  |  |  | 
3 | C=C1NC(=O)C2NC(=O)[C@H](CC(C)C)NC(=O)C(NC(=O)[C@@H]3CSC(C)C(NC(=O)[C@H](Cc4ccccc4)NC(=O)C4NC(=O)[C@@H](N)CSC4C)C(=O)N[C@@H](CC(C)C)C(=O)N4CCC[C@H]4C(=O)NCC(=O)NCC(=O)NCC(=O)N[C@@H](C(C)C)C(=O)N[C@@H](C(C)C)C(=O)N3)C(C)SC[C@H](NC(=O)[C@H](CCC(=O)O)NC1=O)C(=O)N[C@@H]([C@@H](C)CC)C(=O)NC=CSC2C (some centres unmarked) [G10V] |  | 64, >64 μg/ml | >64 µg/mL | 16 (≈ 8.56 µM) | < 4 | >64 | >64 | >64 | 64 (≈ 34.3 µM) | 
4 | C=C1NC(=O)C2NC(=O)[C@H](CC(C)C)NC(=O)C(NC(=O)[C@@H]3CSC(C)C(NC(=O)[C@H](Cc4ccccc4)NC(=O)C4NC(=O)[C@@H](N)CSC4C)C(=O)N[C@@H](CC(C)C)C(=O)N4CCC[C@H]4C(=O)NCC(=O)N[C@@H](Cc4c[nH]cn4)C(=O)NCC(=O)NCC(=O)N[C@@H](C(C)C)C(=O)N3)C(C)SC[C@H](NC(=O)[C@H](CCC(=O)O)NC1=O)C(=O)N[C@@H]([C@@H](C)CC)C(=O)NC=CSC2C (some centres unmarked) [G8H] |  | 64 µg/mL (≈ 33.6 µM) | 64, >64 μg/ml | 16 (≈ 8.39 µM) | 8 (≈ 4.2 µM) | >64 | >64 | >64 | 64 (≈ 33.6 µM) | 
5 | Mersacidin [reference compound] |  |  |  |  |  |  |  |  |  | MIC S. aureus R33 MRSA (S. aureus R33 MRSA; [3]): 32 µg/mL; MIC S. aureus SH1000 (S. aureus SH1000; [3]): 32 µg/mL; MIC S. pneumoniae BAA-255 (S. pneumoniae BAA-255; two-fold serial dilutions in brain-heart-infusion broth with 50 μg/ml Ca2+, 18–20 hr at 37°C, MIC = lowest concentration preventing visible growth): 2 mg/L; MIC M. luteus ATCC4698 (M. luteus ATCC4698; [3]): 1 mg/L and 2 mg/L; MIC E. faecalis ATCC29212 (E. faecalis ATCC29212; [3]): 64 mg/L; MIC E. faecium 7131121 VRE (E. faecium 7131121 VRE; vancomycin-resistant clinical isolate, CLSI recommendations, 18–20 hr at 37°C, MIC = lowest concentration preventing visible growth): 64 mg/L; MIC E. faecium ATCC19579 (E. faecium ATCC19579; [3]): 32 mg/L; MIC S. epidermidis NCTC11047 (S. epidermidis NCTC11047; [3]): 16 mg/L and 32 mg/L; eradication of MRSA in a mouse rhinitis model (MRSA): eradicates MRSA; cure of abscesses in rats [2]: cures; cure of systemic MRSA infections in mice [2]: cures

Source: PMC2706954, “Dissecting Structural and Functional Diversity of the Lantibiotic Mersacidin” (Chemistry & Biology, 2009)
